Laboratory results reported in a melting point compilation (Tetko et al.; mined from patent text by program, amines drawn as free bases though some values may be those of a salt).

SMILES	melting point
CC1(C)CCc2cc(C#N)ccc2O1	30 to 31 °C
Cn1c([N+](=O)[O-])cnc1CSc1ccccn1	108 °C
CCOc1ccccc1OC(c1ccccc1)C(O)CO (stereo unspecified)	68 to 70 °C
CC1(C)CC(=O)c2c(nc(Cc3ccc(O)c(F)c3)c3[nH]c4ccccc4c23)C1	216 to 218 °C
Cc1ccccc1COC1COC(CCl)OC1 (stereo unspecified)	62 to 63 °C
C=C(C)Cc1c(O)cc(C)c(NC=O)c1C	207 to 209 °C
CCCCCCNC(=O)OCCCCCCCCCCCCNC(=O)OC1CCN(C(=O)O)CC1	98 to 100 °C
CC1(C)Oc2ccc(C#N)cc2[C@@H](N2CCCC2=O)[C@@H]1O (relative stereo)	226 °C
Cc1ccc(Cl)c2c(C)c(C(=O)O)[nH]c12	211 to 213 °C
Cc1cccc2c1C(=O)N(C1(C(=O)Nc3ccc(Cl)cc3)CCCCC1)C2=O	208 to 209 °C
Cc1cc(-c2nnc(C(C)(C)C)o2)ccc1N=CN(C)C	79 to 80 °C
O=c1oc(-c2ccccc2Cl)nn1-c1ccccc1C(F)(F)F	100 to 102 °C
CCCCCCCCCCC[C@H](C[C@H](O)[C@H](CCCCCC)C(=O)O)OCc1ccccc1	57 to 60 °C
CCn1cc(Nc2nc(-c3cccc(N4Cc5cc(C(C)(C)C)ccc5C4=O)c3CO)cn(C)c2=O)cn1	138 to 140 °C
O=[N+]([O-])c1ccc(Cl)c(C2SCCS2)c1	130 to 131 °C
OCCC1(c2ccccc2)CCNCC1	120 °C
Cc1cccc(-c2c(O)c3ccc(Cl)cc3[nH]c2=O)c1	> 350 °C
COC(=O)c1sc(S(C)(=O)=O)cc1O	138 to 140 °C
O=S(=O)(CI)c1ncc(Cl)cn1	152 °C
COc1ccc(Oc2ccccc2)cc1NC(=O)c1ccn2c1CSC2c1cccnc1 (stereo unspecified)	158 °C
Oc1ccc(C2CCOCC2)cc1Cl	123 to 125 °C
CNC(=O)ON=C1SCOC1COC (stereo unspecified)	105 to 106 °C
O=C(CC1CCC2(CC1)OOC1(CCCCCCCCCCC1)OO2)N1CCS(=O)(=O)CC1	170 to 172 °C
CC(C)(C)OC(=O)N1CCn2c(Cl)cc(C(N)=O)c2C1	223 to 225 °C
OC1CSC(Oc2cccc(-c3ccnc(Cl)c3)c2)C(O)C1O (stereo unspecified)	207 °C
COc1ccc(Nc2ncnc3occ(C)c23)cc1	99 to 102 °C
NC(=NO)c1ncn2c1nc(N1CCOCC1)c1ccccc12	212 to 213 °C

Results, then the compound that gave them:

melting point	SMILES
104 to 106 °C	C#CCOc1ccc2cnn(C[C@H](C)NC(=O)OCc3ccccc3)c2c1
118 °C	COc1c(C)cccc1CC(N)(CF)C(N)=O (stereo unspecified)
119 to 121 °C	CCC(Oc1c(C(C)C)cccc1C(C)C)C(=O)OC1CC(O)C=C2C=CC(C)C(CCC3CC(O)CC(=O)O3)C21 (mixture of isomers)
230 to 233 °C	CC(=O)OC1(C(C)=O)C(C)CC2C3CCC4=CC(=O)C=CC4(C)C3=CCC21C (stereo unspecified)
118 to 120 °C	CCN(CC)c1ccc(S(=O)(=O)N2CCCCC2=O)cc1
125 to 128 °C	CC(=O)NC[C@H]1CN(c2ccc(N3CCC(=C(C#N)C(=O)N4CCCC4)CC3)c(F)c2)C(=O)O1
202 to 204 °C	O=c1[nH]c2ccc(S(=O)CCN3CCC(Cc4ccc(F)cc4)CC3)cc2o1 (stereo unspecified)
52 to 54 °C	COc1cccc(C=CC(=O)C=Cc2cccc(OC)c2)c1
> 270 °C	O=C(O)Cn1c(C(=O)O)cc(=O)c2c1C(=O)C(O)=C2
158 to 160 °C	Nc1ncccc1C(=O)NCC1CCN(C[C@H]2COc3ccc(Br)cc3O2)CC1
206 to 208 °C	CCCCN(C(C)=O)C1NC(=O)N(c2ccc(OC(C)=O)cc2)C(=O)N1
97 to 98 °C	O=C(O)C(=O)c1ccc(OCc2ccccc2)cc1
130 to 139 °C	CCCn1nc2c(N)nc3ccccc3c2c1CC(C)(C)NS(C)(=O)=O
178 °C	Cc1cc(-n2ccnc2)c2cccc(OCc3c(Cl)ccc(S(=O)(=O)N4CCC[C@H]4C(=O)NCC4CCN(CCCC(=O)O)CC4)c3Cl)c2n1
